Measurements taken from patent US4427671A, “Steroids esterified in position 17 and thioesterified in position 21, a process for preparing them and their use as medicaments” (priority 1981, dated 1984).

Tests used:
Type in all cases: in vivo, male Sprague-Dawley I.O.P.S. rats
granuloma = test: Local anti-inflammatory activity: inhibition of granuloma formation around implanted cotton wool pellet; settings: for R 1 (relative local anti-inflammatory activity compared with betamethasone 17,21-dipropionate): D.P.B. = 1, calculated from ED50; for R 1 (relative local anti-inflammatory activity compared with betamethasone 17,21-dipropionate) / ED50 (local anti-inflammatory activity, 50% inhibition in granuloma weight): Table 1; for activity compared with betamethasone 17,21-dipropionate (times greater): local anti-inflammatory test; for ED50 (local anti-inflammatory activity, 50% inhibition in granuloma weight): rat, cotton pellet granuloma, six days after implantation
Protocol: A. Winter and C. C. Porter (J. Am. Pharm. Ass. 1957, 46, 9, pages 515-519).
(§1) The principle of the test consists in implanting a pellet of cotton wool in the dorsal subcutaneous tissue of the animal. The corticoids to be studied are added to the pellet so that the following tests can be carried out:
(1) Determination of the local anti-inflammatory activity
The presence of products within the pellet may inhibit or prevent the formation of a granuloma.
(§2) The animals are divided into random homogeneous groups of 10 male Sprague-Dawley I.O.P.S. rats with a body weight of between 100 and 120 grams.
(§3) The pellets to be implanted weigh from 35 to 40 mg and are prepared from balls of dental cotton wool. Before being inserted, each pellet is weighed and impregnated with the precise quantity of the product which is to be studied, dissolved in 0.2 ml of chloroform. The chloroform is eliminated by evaporation over a period of 24 hours at ambient temperature.
(§4) Before implantation, each pellet is impregnated with a solution of antibiotics:
Streptomycin 0.1 gram/ml.
(§5) The animals are anaesthetised with ether, and then two pellets are implanted in each animal in the dorsal subcutaneous tissue, on each side of the median line:
(§6) on the left, the pellet containing the product to be tested (treated animal) or the carrier only (control animal);
(§7) on the right, the pellet containing the carrier only.
(§8) The animals are given normal food and are sacrificed six days after the pellets have been implanted.
(1) Local anti-inflammatory activity
The pellets surrounded by granulomatous tissue are carefully removed and weighed, and then dried until a constant weight is obtained.
The relative activity of the test products compared with betamethasone 17,21-dipropionate is calculated according to the following equation: [formula]

thymus = test: Systemic activity after local administration: effect on the weight of the thymus; settings: rat, in vivo, 8640 min
Protocol: (§9) The pharmacological activity of the products described in the invention was tested in the rat using a technique similar to that described by C. A. Winter and C. C. Porter (J. Am. Pharm. Ass. 1957, 46, 9, pages 515-519).
as §1
(§10) (2) Determination of the systemic activity of the products after local administration
(§11) Local application of the corticoids may result, inter alia, in:
(a) a reduction in the defence systems of the organism, the most notable sign of which is a reduction in the weight of the animals' thymuses.
as §2, §3, §4, §5, §6, §7, §8
(2) Determination of the systemic effect
The thymuses are taken from the same animals and weighed. Using the same type of calculation, an ED 50 is determined, which corresponds to the dosage of product resulting in a 50% decrease in weight of the thymuses, compared with the control animals.

[1] = Systemic activity after local administration: effect on weight gain; settings: rat, in vivo, 8640 min
Protocol: as §9, §1, §10, §11
(b) Disruption of the protein metabolism which causes tissue fusion, resulting in an inhibition of the weight increase in animals.
as §2, §3, §4, §5, §6, §7, §8
(b) Effect on weight gain
The weight gain over six days is determined on the animals before they are sacrificed.
The activity of the products was expressed as the percentage inhibition in the weight gain of the treated animals compared with the weight gain in the control animals.
The ED 30 which corresponds to a 30% inhibition in the weight gain was determined.

Structure (SMILES) | R 1 (relative local anti-inflammatory activity compared with betamethasone 17,21-dipropionate) (granuloma) | activity compared with betamethasone 17,21-dipropionate (times greater) (granuloma) | ED50 (local anti-inflammatory activity, 50% inhibition in granuloma weight) (granuloma) [mg/pellet] | ED50 (50% decrease in weight of the thymuses) (thymus) [mg/pellet] | R 2 (relative effect on thymus weight compared with D.P.B.) (thymus) | ED30 (30% inhibition in the weight gain) [1] [mg/pellet] | R 3 (relative activity on weight gain compared with D.P.B.) [1]
CCC(=O)OC1(C(=O)CSC(C)=O)C(C)CC2C3CCC4=CC(=O)C=CC4(C)C3(F)C(O)CC21C (stereo not drawn) [Ex. 10, 9α-fluoro-11β-hydroxy-16β-methyl-pregna-1,4-diene-3,20-dione (or betamethasone) 17-propionate, 21-thioacetate] | 124 | more than 100 times | 0.013 | 0.25 | 3.40 | > 1 | < 0.8
CCC(=O)OC1(C(=O)CSC(=O)CC)C(C)CC2C3CCC4=CC(=O)C=CC4(C)C3(F)C(O)CC21C (stereo not drawn) [Ex. 11, 9α-fluoro-11β-hydroxy-16β-methyl-pregna-1,4-diene-3,20-dione (or betamethasone) 17-propionate, 21-thiopropionate] | 134 | more than 100 times | 0.012 | 0.46 | 1.9 | 0.8 | 1
CCCCC(=O)OC1(C(=O)CSC(=O)CCCC)C(C)CC2C3CCC4=CC(=O)C=CC4(C)C3(F)C(O)CC21C (stereo not drawn) [Ex. 12, 9α-fluoro-11β-hydroxy-16β-methyl-pregna-1,4-diene-3,20-dione (or betamethasone) 17-valerate, 21-thiovalerate] | > 129 | more than 100 times | < 0.0125 | > 0.8 | < 1 | > 0.8 | < 1
CCCCC(=O)OC1(C(=O)CSC(C)=O)C(C)CC2C3CCC4=CC(=O)C=CC4(C)C3(F)C(O)CC21C (stereo not drawn) [Ex. 13, 9α-fluoro-11β-hydroxy-16β-methyl-pregna-1,4-diene-3,20-dione (or betamethasone) 17-valerate, 21-thioacetate] | 32.2 | – | 0.050 | 0.8 | 1.1 | 0.65 | 1.23
CC(=O)OC1(C(=O)CSC(=O)CC(C)(C)C)C(C)CC2C3CCC4=CC(=O)C=CC4(C)C3(F)C(O)CC21C (stereo not drawn) [Ex. 14, 9α-fluoro-11β-hydroxy-16α-methyl-pregna-1,4-diene-3,20-dione (or dexamethasone) 17-acetate, 21-thio-tert.butyl-acetate] | 537 | more than 100 times | 0.003 | 0.33 | 2.6 | 0.015 | 53
CCC(=O)OC1(C(=O)CSC(=O)CC)C(C)CC2C3CCC4=CC(=O)C=CC4(C)C3(Cl)C(O)CC21C (stereo not drawn) [Ex. 15, 9α-chloro-11β-hydroxy-16β-methyl-pregna-1,4-diene-3,20-dione (or beclomethasone) 17-propionate, 21-thiopropionate] | > 322 | more than 100 times | < 0.005 | 2.4 | 0.36 | 0.56 | 1.42
CCCCC(=O)SCC(=O)C1(OC(=O)CC)C(C)CC2C3CCC4=CC(=O)C=CC4(C)C3(Cl)C(O)CC21C (stereo not drawn) [Ex. 16, 9α-chloro-11β-hydroxy-16β-methyl-pregna-1,4-diene-3,20-dione (or beclomethasone) 17-propionate, 21-thiovalerate] | 13.4 | – | 0.120 | > 1 | < 0.86 | > 1.0 | < 0.8
CCCCC(=O)OC1(C(=O)CSC(C)=O)C(C)CC2C3CCC4=CC(=O)C=CC4(C)C3(Cl)C(O)CC21C (stereo not drawn) [Ex. 17, 9α-chloro-11β-hydroxy-16β-methyl-pregna-1,4-diene-3,20-dione (or beclomethasone) 17-valerate, 21-thioacetate] | 8.9 | – | 0.180 | > 1 | < 0.86 | > 1.0 | < 0.8
CCCCC(=O)OC1(C(=O)CSC(=O)CCCC)C(C)CC2C3CCC4=CC(=O)C=CC4(C)C3(Cl)C(O)CC21C (stereo not drawn) [Ex. 18, 9α-chloro-11β-hydroxy-16β-methyl-pregna-1,4-diene-3,20-dione (or beclomethasone) 17-valerate, 21-thiovalerate] | 16.8 | – | 0.096 | > 1 | < 0.86 | > 1.0 | < 0.8
C=C1C[C@H]2[C@@H]3CCC4=CC(=O)C=C[C@]4(C)[C@H]3[C@@H](O)C[C@]2(C)[C@@]1(OC(=O)CC)C(=O)CSC(=O)CC [Ex. 19, 11β-hydroxy-16-methylene-pregna-1,4-diene-3,20 dione (or prednylidene)17-propionate, 21-thiopropionate] | 0.89 | – | 1.800 | 7 | 0.12 | 0.015 | 53
